In patent publication US9963448B2, “Bicyclic inhibitors of PAD4” (Padlock Therapeutics, Inc., priority 2015, dated 2018):
Where a name gives a salt, the structure may show the parent alone. Read-outs that look alike come from different tables or passages of the source.

How the values were obtained:
[1] = target: mPAD4 (Mus musculus, UniProt Q9Z183); assay: mPAD4 RFMS PAD4 inhibition assay; type: biochemical; details: mPAD4, RFMS readout;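 for mPAD4 RFMS pIC50: grade E means pIC50 at most 4 and F means pIC50 4.0 to 5.0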
Procedure: (§1) Compounds of the present invention were assayed as inhibitors of PAD4 using the assay protocol described below.
(§2) Compound stock solutions were stored at RT. […] Final assay conditions were as follows:
(§3) Total incubation time: 65 mins at 37° C.
(§4) Stop solution: 40 μl 5% TCA in ACN
(§5) The compound numbers correspond to the compound numbers in Table 1. […] The term pIC50=−log(IC50). […] “NA” stands for “not assayed.”

[2] = target: hPAD4 (Homo sapiens, UniProt Q9UM07); assay: hPAD4 RFMS (RapidFire mass spectrometry) PAD4 inhibition assay; type: biochemical; details: hPAD4 enzyme, RFMS readout;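 for hPAD4 RFMS pIC50: grade E means pIC50 at most 4 and F means pIC50 4.0 to 5.0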
Procedure: as §1, §2, §3, §4, §5

[3] = pIC50=−log(IC50), read-out: mPAD4 RFMS pIC50 (converted)
[4] = pIC50=−log(IC50), read-out: hPAD4 RFMS pIC50 (converted)

hPAD4, sequence (Q9UM07 whole entry): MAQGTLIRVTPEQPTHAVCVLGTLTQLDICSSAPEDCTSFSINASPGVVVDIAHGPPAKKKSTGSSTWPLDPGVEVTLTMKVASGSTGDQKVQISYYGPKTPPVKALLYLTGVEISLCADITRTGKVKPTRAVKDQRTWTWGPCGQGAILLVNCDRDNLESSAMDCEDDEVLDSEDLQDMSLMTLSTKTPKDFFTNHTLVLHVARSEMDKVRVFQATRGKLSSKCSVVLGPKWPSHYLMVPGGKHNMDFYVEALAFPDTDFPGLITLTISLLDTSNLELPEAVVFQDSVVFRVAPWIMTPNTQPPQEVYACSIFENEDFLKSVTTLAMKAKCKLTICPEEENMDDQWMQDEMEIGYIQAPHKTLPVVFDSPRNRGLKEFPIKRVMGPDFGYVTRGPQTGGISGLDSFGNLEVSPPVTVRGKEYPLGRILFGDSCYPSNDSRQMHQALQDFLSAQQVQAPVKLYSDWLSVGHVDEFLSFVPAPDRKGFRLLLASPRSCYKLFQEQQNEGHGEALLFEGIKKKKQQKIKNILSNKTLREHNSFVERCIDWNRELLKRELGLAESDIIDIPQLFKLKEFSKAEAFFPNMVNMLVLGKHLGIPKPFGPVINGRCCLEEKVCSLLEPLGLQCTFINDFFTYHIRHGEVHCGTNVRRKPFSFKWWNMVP
mPAD4, sequence (Q9Z183 whole entry): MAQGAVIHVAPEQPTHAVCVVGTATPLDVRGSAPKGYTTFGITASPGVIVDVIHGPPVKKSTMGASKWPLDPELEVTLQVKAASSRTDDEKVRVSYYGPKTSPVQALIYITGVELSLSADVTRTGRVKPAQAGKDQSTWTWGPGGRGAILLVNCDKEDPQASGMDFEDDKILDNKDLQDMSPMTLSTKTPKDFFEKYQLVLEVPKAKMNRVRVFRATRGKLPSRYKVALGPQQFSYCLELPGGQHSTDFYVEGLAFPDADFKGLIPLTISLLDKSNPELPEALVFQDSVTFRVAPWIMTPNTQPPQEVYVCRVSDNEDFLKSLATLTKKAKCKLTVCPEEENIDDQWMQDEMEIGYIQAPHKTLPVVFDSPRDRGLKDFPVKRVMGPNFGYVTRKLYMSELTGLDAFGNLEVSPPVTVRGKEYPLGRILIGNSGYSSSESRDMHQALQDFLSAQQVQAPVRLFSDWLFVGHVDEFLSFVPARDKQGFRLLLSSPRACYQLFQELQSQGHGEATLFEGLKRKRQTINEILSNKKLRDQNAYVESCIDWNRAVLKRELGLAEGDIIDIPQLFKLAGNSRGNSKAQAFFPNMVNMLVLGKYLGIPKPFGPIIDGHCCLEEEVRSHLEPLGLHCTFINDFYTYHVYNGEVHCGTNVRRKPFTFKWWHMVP

| IC50 [1, 3] | IC50 ([1]; read-out: mPAD4 RFMS IC50) | IC50 [2, 4] | IC50 ([2]; read-out: hPAD4 RFMS IC50) | Compound |
| --- | --- | --- | --- | --- |
| 10 to 100 µM | > 10 µM | 10 to 100 µM | > 10 µM | COc1cc(C(=O)N2C[C@@H]3[C@@H](N)[C@@H]3C2)cc2nc(-c3cc4cccnc4n3CC3CC3)n(C)c12 [Compound I-76] |
| 1 to 10 µM | 1 to 5 µM | 1 to 10 µM | 1 to 5 µM | CCn1c(-c2nc3cc(C(=O)N4C[C@H]5CC[C@@H]4[C@@H]5N)cc(F)c3n2C)cc2cccnc21 [Compound I-165] |
| 1 to 10 µM | 5 to 10 µM | 1 to 10 µM | 1 to 5 µM | Cn1c(-c2cc3cccnc3n2CC2CC2)nc2cc(C(=O)N3CC[C@H]4CCN[C@H]4C3)ccc21 [Compound I-10] |
| < 1 µM | < 1 µM | < 1 µM | < 1 µM | COc1cc(C(=O)N2CCC[C@@H](N)C2)cc2nc(-c3cc4ccc(C(C)(C)O)nc4n3CC3CC3)n(C)c12 [Compound I-211] |
| 1 to 10 µM | 1 to 5 µM | 1 to 10 µM | 1 to 5 µM | COc1cc(C(=O)N2CC[C@H](OC)[C@H](N)C2)cc2nc(-c3cc4cccnc4n3CC3CC3)n(C)c12 [Compound I-142] |
| 1 to 10 µM | 5 to 10 µM | 1 to 10 µM | 1 to 5 µM | CO[C@@H]1CCN(C(=O)c2ccc3c(c2)nc(-c2cc4cccnc4n2CC2CC2)n3C)C[C@@H]1N (single isomer, unassigned) [Compound I-64] |
| 1 to 10 µM | 5 to 10 µM | 1 to 10 µM | 1 to 5 µM | COc1cc(C(=O)N2CCC[C@@H](N)C2)cc2nc(-c3cc4cccnc4n3CC3CC(C)(O)C3)n(C)c12 (stereo partly drawn) [Compound I-113] |
| < 1 µM | < 1 µM | < 1 µM | < 1 µM | COc1cc(C(=O)N2CC3CCC2C(N)C3)cc2nc(-c3cc4cccnc4n3CC3CC3)n(C)c12 (stereo not drawn) [Compound I-115] |
| 1 to 10 µM | 1 to 5 µM | 1 to 10 µM | 1 to 5 µM | CCn1c(-c2nc3cc(C(=O)N4CCC[C@@H](N)C4)cc(OC)c3n2CC2CCOCC2)cc2cccnc21 [Compound I-174] |
| 10 to 100 µM | > 10 µM | 10 to 100 µM | > 10 µM | COc1cc(C(=O)N2C[C@@H]3CC[C@H]2[C@@H](N)C3)cc2nc(-c3cc4cccnc4n3CC3CC3)n(C)c12 [Compound I-212] |
| < 1 µM | < 1 µM | < 1 µM | < 1 µM | CCn1c(-c2nc3cc(C(=O)N4CCC[C@@H](N)C4)cc(OC)c3n2C[C@H]2C[C@@](C)(OC)C2)cc2ccc(OC)nc21 [Compound I-204] |
| 10 to 100 µM | > 10 µM | 10 to 100 µM | > 10 µM | COc1cc(C(=O)N2CCC3(CNCCC3(F)F)C2)cc2nc(-c3cc4cccnc4n3CC3CC3)n(C)c12 (racemic) [Compound I-97] |
| < 1 µM | < 1 µM | 1 to 10 µM | 1 to 5 µM | Cn1c(-c2cc3cccnc3n2CC2CC2)nc2cc(C(=O)N3C[C@@H](N)C[C@H](F)C3)cc(OC(F)F)c21 [Compound I-73] |
| < 1 µM | < 1 µM | < 1 µM | < 1 µM | CCn1c(-c2nc3cc(C(=O)N4C[C@H](N)C[C@@H](F)C4)cc(OC)c3n2C[C@H]2C[C@@](C)(OC)C2)cc2ccc(OC)nc21 [Compound I-205] |
| 10 to 100 µM | > 10 µM | 10 to 100 µM | > 10 µM | COc1cc(C(=O)N2C[C@H]3CC[C@@H]2[C@@H](N)C3)cc2nc(-c3cc4cccnc4n3CC3CC3)n(C)c12 [Compound I-216] |
| < 1 µM | < 1 µM | < 1 µM | < 1 µM | COc1cc(C(=O)N2C[C@H]3CC[C@@H]2[C@@H]3N)cc2nc(-c3cc4cccnc4n3CC3CC3)n(C[C@H]3C[C@@H](OC)C3)c12 [Compound I-236] |
| < 1 µM | < 1 µM | 1 to 10 µM | 1 to 5 µM | Cn1c(-c2cc3cccnc3n2CC2CC2)nc2cc(C(=O)N3C[C@@H](N)C[C@H](F)C3)cc(OCC(F)F)c21 [Compound I-72] |
| 10 to 100 µM | > 10 µM | 1 to 10 µM | 5 to 10 µM | CCn1c(-c2nc3cc(C(=O)N4C[C@@H]5CC[C@H]4[C@H]5N)cc(OC)c3n2C)cc2ccc(OC)nc21 [Compound I-140] |
| 10 to 100 µM | > 10 µM | 10 to 100 µM | > 10 µM | COc1cc(C(=O)N2CC(O)(C3CCCCN3)C2)cc2nc(-c3cc4cccnc4n3CC3CC3)n(C)c12 (racemic) [Compound I-74] |

More lines, now with the values behind:

| Compound | IC50 [1, 3] | IC50 ([1]; read-out: mPAD4 RFMS IC50) | IC50 [2, 4] | IC50 ([2]; read-out: hPAD4 RFMS IC50) |
| --- | --- | --- | --- | --- |
| COc1cc(C(=O)N2C[C@H](N)CC[C@@H]2CO)cc2nc(-c3cc4cccnc4n3CC3CC3)n(C)c12 (racemic) [Compound I-221, rac-[(2R,5R)-5-amino-1-{2-[1-(cyclopropylmethyl)-1H-pyrrolo[2,3-b]pyridin-2-yl]-7-methoxy-1-methyl-1H-1,3-benzodiazole-5-carbonyl}piperidin-2-yl]methanol] | 1 to 10 µM | 1 to 5 µM | 10 to 100 µM | > 10 µM |
| CCn1c(-c2nc3cc(C(=O)N4C[C@@H](N)CC[C@H]4C)cc(OC)c3n2C)cc2cccnc21 [Compound I-138] | < 1 µM | < 1 µM | < 1 µM | < 1 µM |
| COc1ccc2cc(-c3nc4cc(C(=O)N5CC[C@H](OC)[C@H](N)C5)ccc4n3C)n(CC3CC3)c2n1 [Compound I-130] | 1 to 10 µM | 1 to 5 µM | < 1 µM | < 1 µM |
| Cn1c(-c2cc3cccnc3n2CC2CC2)nc2cc(C(=O)N3CC[C@H]4CCN[C@H]4C3)cc(OC(F)F)c21 (single isomer, unassigned) [Compound I-24, hydrochloride] | 10 to 100 µM | > 10 µM | 10 to 100 µM | > 10 µM |
| CCn1c(-c2cc3ccc(OC)nc3n2CC2CC2)nc2cc(C(=O)N3CCC[C@@H](N)C3)cc(OC)c21 [Compound I-106] | < 1 µM | < 1 µM | < 1 µM | < 1 µM |
| COc1ccc2cc(-c3nc4cc(C(=O)N5C[C@H]6CC[C@@H]5[C@@H]6N)cc(F)c4n3C)n(CC3CC3)c2n1 [Compound I-230] | < 1 µM | < 1 µM | < 1 µM | < 1 µM |
| CCn1c(-c2nc3cc(C(=O)N4C[C@H]5CC[C@@H]4[C@@H]5N)cc(OC)c3n2[C@H]2C[C@H](OC)C2)cc2cccnc21 [Compound I-207] | 1 to 10 µM | 1 to 5 µM | 1 to 10 µM | 5 to 10 µM |
| COc1cc(C(=O)N2CC[C@@H]3CCN[C@@H]3C2)cc2nc(-c3cc4cccnc4n3CC3CC3)n(C)c12 [Compound I-11] | < 1 µM | < 1 µM | < 1 µM | < 1 µM |
| COc1cc(C(=O)N2CC[C@@H](F)[C@@H](N)C2)cc2nc(-c3cc4cccnc4n3CC3CC3)n(C)c12 [Compound I-91] | < 1 µM | < 1 µM | < 1 µM | < 1 µM |
| CCn1c(-c2nc3cc(C(=O)N4C[C@H]5CC[C@@H]4[C@@H]5N)cc(OC)c3n2C)cc2ccc(C(F)F)nc21 [Compound I-189, (1R,4R,7R)-2-{2-[6-(Difluoromethyl)-1-ethyl-1H-pyrrolo[2,3-b]pyridin-2-yl]-7-methoxy-1-methyl-1H-1,3-benzodiazole-5-carbonyl}-2-azabicyclo[2.2.1]heptan-7-amine] | < 1 µM | < 1 µM | < 1 µM | < 1 µM |
| COc1cc(C(=O)N2C[C@H]3CC[C@@H]2[C@@H]3N)cc2nc(-c3cc4cccnc4n3CC3CC3)n(CC3CCOC3)c12 (stereo partly drawn) [Compound I-217] | < 1 µM | < 1 µM | < 1 µM | < 1 µM |
| Cn1c(-c2cc3cccnc3n2CC2CC2)nc2cc(C(=O)N3CCC[C@@H](N)C3)c(F)cc21 [Compound I-172] | 1 to 10 µM | 1 to 5 µM | 1 to 10 µM | 1 to 5 µM |
| COc1cc(C(=O)N2CC3CCC2C3N)cc2nc(-c3cc4cccnc4n3CC3CC3)n(C)c12 (stereo not drawn) [Compound I-81] | < 1 µM | < 1 µM | < 1 µM | < 1 µM |
| COc1cc(C(=O)N2C[C@H](N)CC[C@@H]2C)cc2nc(-c3cc4cccnc4n3CC3CC3)n(C)c12 [Compound I-87] | < 1 µM | < 1 µM | < 1 µM | < 1 µM |
| COc1cc(C(=O)N2CC3(CNCCO3)C2)cc2nc(-c3cc4cccnc4n3CC3CC3)n(C)c12 [Compound I-32] | 10 to 100 µM | > 10 µM | > 100 µM | > 10 µM |
| COc1cc(C(=O)N2CC(O)(C3(N)CCCC3)C2)cc2nc(-c3cc4cccnc4n3CC3CC3)n(C)c12 [Compound I-84] | 10 to 100 µM | > 10 µM | 10 to 100 µM | > 10 µM |
| Cn1c(-c2cc3cccnc3n2CC2CC2)nc2cc(C(=O)N3C[C@H](N)C[C@@H](F)C3)cc(OC(F)F)c21 [Compound I-98] | < 1 µM | < 1 µM | < 1 µM | < 1 µM |
| COc1cc(C(=O)N2CC3(CCOC[C@@H]3N)C2)cc2nc(-c3cc4cccnc4n3CC3CC3)n(C)c12 [Compound I-95] | 10 to 100 µM | > 10 µM | 10 to 100 µM | > 10 µM |
| COc1cc(C(=O)N2CC3(CCCNC3)C2)cc2nc(-c3cc4cccnc4n3CC3CC3)n(C)c12 [Compound I-27] | 1 to 10 µM | 1 to 5 µM | 1 to 10 µM | 1 to 5 µM |
| COc1cc(C(=O)N2C[C@@H](N)CC[C@@H]2C)cc2nc(-c3cc4cccnc4n3CC3CC3)n(C)c12 [Compound I-89] | 10 to 100 µM | > 10 µM | 10 to 100 µM | > 10 µM |
